In PubChem BioAssay (NCI):
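96-well plates; 48 h exposure; 5 concentrations. Endpoints by linear interpolation between flanking doses. Not reached: highest tested concentration assigned. TGI: concentration producing complete growth inhibition.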

Assays:
Assay in all cases: growth of human tumour cells (NCI), 48 h
BT-549 breast = system: BT-549 breast
CAKI-1 renal = system: CAKI-1 renal
NCI-H226 lung = system: NCI-H226 lung
M14 melanoma = system: M14 melanoma
U251 CNS = system: U251 CNS
PC-3 prostate = system: PC-3 prostate
786-0 renal = system: 786-0 renal
HCT-116 colon = system: HCT-116 colon
RPMI-8226 leukemia = system: RPMI-8226 leukemia
HOP-62 NSCLC = system: HOP-62 NSCLC
SF-268 CNS = system: SF-268 CNS
NCI-H23 lung = system: NCI-H23 lung
K-562 leukemia = system: K-562 leukemia
OVCAR-5 ovarian = system: OVCAR-5 ovarian
HT29 colon = system: HT29 colon
HCT-15 colon = system: HCT-15 colon
MDA-MB-435 = system: MDA-MB-435
NCI-H522 lung = system: NCI-H522 lung
UACC-62 melanoma = system: UACC-62 melanoma
MALME-3M melanoma = system: MALME-3M melanoma

| SMILES | TGI (BT-549 breast) | TGI (CAKI-1 renal) | TGI (NCI-H226 lung) | TGI (M14 melanoma) | TGI (U251 CNS) | TGI (PC-3 prostate) | TGI (786-0 renal) | TGI (HCT-116 colon) | TGI (RPMI-8226 leukemia) | TGI (HOP-62 NSCLC) | TGI (SF-268 CNS) | TGI (NCI-H23 lung) | TGI (K-562 leukemia) | TGI (OVCAR-5 ovarian) | TGI (HT29 colon) | TGI (HCT-15 colon) | TGI (MDA-MB-435) | TGI (NCI-H522 lung) | TGI (UACC-62 melanoma) | TGI (MALME-3M melanoma) |
| --- | --- | --- | --- | --- | --- | --- | --- | --- | --- | --- | --- | --- | --- | --- | --- | --- | --- | --- | --- | --- |
| O=c1oc2cc(O)ccc2c(O)c1C(c1ccc2ccccc2c1)c1c(O)c2ccc(O)cc2oc1=O | > 100 µM | > 100 µM | > 100 µM | > 100000 nM | > 100 µM | > 100 µM | > 100 µM | > 100 µM | 85.2 µM | > 100 µM | 33.5 µM | > 100 µM | > 100 µM | > 100 µM | > 100 µM | > 100 µM | > 100 µM | > 100 µM | > 100 µM | – |
| Cc1nc2ccc(F)cc2c2c1CCN2c1ccccc1 | 44.2 µM | – | 41.8 µM | – | 78.9 µM | 86.2 µM | > 100 µM | 23.2 µM | 37.1 µM | > 100 µM | > 100 µM | 52.9 µM | 33.4 µM | – | > 100 µM | > 100 µM | 32.8 µM | 47.1 µM | 27.4 µM | 40.8 µM |
| C=C1CC(COc2ccc3c(C)c(Cl)c(=O)oc3c2)(c2ccccc2)OC1=O (stereo not given) | 2.87 µM | 3.12 µM | 8.01 µM | 2240 nM | 20.4 µM | 5.49 µM | 2.95 µM | 2.42 µM | 1.42 µM | 20.3 µM | 19 µM | 3.84 µM | – | 25.9 µM | 2.67 µM | 5.13 µM | 7.6 µM | 3.93 µM | 3.53 µM | 3.75 µM |
